Reference: patent publication US9434728B1, “Nitrogen containing compounds and their use” (WOCKHARDT LIMITED, priority 2013, dated 2016)
Values after ≈ are worked out from the molar mass of the structure shown.

Experiments:
Type in all cases: cell-based
E. coli (7MP) = experiment: Antibacterial activity, agar dilution MIC (CLSI); details: Escherichia coli, ESBL SHV, CMY
Description: (§1) The biological activity of representative compounds according to the invention against various bacterial strains was investigated. In a typical study, overnight grown bacterial cultures were diluted appropriately and inoculated on the agar media containing doubling dilutions of the test compounds. Observations for growth or no growth was performed after 16-20 hours of incubation at 35±2° C. in the ambient air. The overall procedure was performed as per Clinical and Laboratory Standards Institute (CLSI) recommendations (Clinical and Laboratory Standards Institute (CLSI), Performance Standards for Antimicrobial Susceptibility Testing, 20th Informational Supplement, M 100-S20, Volume 30, No. 1, 2010). […] The Compound (XI), which is the free zwitterionic form of Compound (X), was also studied for the antibacterial activity profile.

E. coli (NCTC 13352) = experiment: Antibacterial activity, agar dilution MIC (CLSI); details: Escherichia coli, NCTC13352, ESBL TEM 10
Description: as §1

E. coli (NCTC 13353) = experiment: Antibacterial activity, agar dilution MIC (CLSI); details: Escherichia coli, NCTC13353, ESBL CTXM-15
Description: as §1

K. pneumoniae (H521) = experiment: Antibacterial activity, agar dilution MIC (CLSI); details: Klebsiella pneumoniae, ESBL KPC
Description: as §1

K. pneumoniae (S48) = experiment: Antibacterial activity, agar dilution MIC (CLSI); details: Klebsiella pneumoniae, ESBL NDM, SHV
Description: as §1

P. aeruginosa (MBL18) = experiment: Antibacterial activity, agar dilution MIC (CLSI); details: Pseudomonas aeruginosa, ESBL VIM
Description: as §1

[1] = tested on: resistant ESBL strains of K. pneumoniae, E. coli and P. aeruginosa; experiment: Antibacterial activity profile
Description: as §1

E. coli H483 = experiment: Antibacterial activity in combination with Ceftazidime, agar dilution MIC; details: Escherichia coli; agent alone; E. coli H483, ESBL CMY-2
Description: as §1
(§2) The antibacterial activity of the Compound (XI) was also studied in combination with other beta-lactam antibacterial agents. […] The antibacterial activity of the combination of Compound (XI) (4 μg/ml) and Ceftazidime was compared with (i) combination of Cetftazidime and Avibactam (4 μg/ml); and (ii) Imipenem alone.

[2] = tested on: K. pneumoniae ATCC 700603; experiment: as above; details: Klebsiella pneumoniae, ATCC700603; agent alone; K. pneumoniae ATCC 700603, ESBL SHV-18
Description: as §1, §2

K. pneumoniae J101 = experiment: as above; details: Klebsiella pneumoniae; agent alone; K. pneumoniae J101, ESBL TEM-1, SHV-12, OMP
Description: as §1, §2

K. pneumoniae J102 = experiment: as above; details: Klebsiella pneumoniae; agent alone; K. pneumoniae J102, ESBL TEM-1, SHV-5, OMP
Description: as §1, §2

MIC (E. coli (7MP)) [µg/mL]	MIC (E. coli (NCTC 13352)) [µg/mL]	MIC (E. coli (NCTC 13353)) [µg/mL]	MIC (K. pneumoniae (H521)) [µg/mL]	MIC (K. pneumoniae (S48)) [µg/mL]	MIC (P. aeruginosa (MBL18)) [µg/mL]	MIC (E. coli H483) [µg/mL]	MIC [2] [µg/mL]	MIC (K. pneumoniae J101) [µg/mL]	MIC (K. pneumoniae J102) [µg/mL]	SMILES	antibacterial activity (in words) [1]
16 (≈ 33.3 µM)	2 (≈ 4.16 µM)	> 32	> 32	> 32	> 32					CO/N=C(\C(=O)N[C@@H]1C(=O)N2C(C(=O)[O-])=C(C[N+]3(C)CCCC3)CS[C@H]12)c1csc(N)n1 [Cefepime]	
4 (≈ 15.9 µM)	2 (≈ 7.96 µM)	1 (≈ 3.98 µM)	1 (≈ 3.98 µM)	1 (≈ 3.98 µM)	8 (≈ 31.8 µM)					NC[C@@H]1CC[C@@H]2CN1C(=O)N2OS(=O)(=O)O [Compound (XI), (2S, 5R)-6-sulfooxy-2-(aminomethyl)-7-oxo-1,6-diaza-bicyclo[3.2.1]octane]	good antibacterial activity
> 32	> 32	> 32	> 32	> 32	> 32	> 32	16	> 32	> 32	CC(C)(O/N=C(\C(=O)N[C@@H]1C(=O)N2C(C(=O)[O-])=C(C[n+]3ccccc3)CS[C@H]12)c1csc(N)n1)C(=O)O [Ceftazidime]	
1 (≈ 3.34 µM)	0.25 (≈ 0.835 µM)	0.25 (≈ 0.835 µM)	16 (≈ 53.4 µM)	16 (≈ 53.4 µM)	16 (≈ 53.4 µM)	0.25	0.12	2	8	C[C@@H](O)[C@H]1C(=O)N2C(C(=O)O)=C(SCCN=CN)C[C@H]12 [Imipenem]	
